According to patent US10702526B2, “Inhibitors of immune checkpoint modulators and related methods” (eFFECTOR Therapeutics, Inc., priority 2015, dated 2020):
“Also recorded” adds a separate entry of the source.

What was measured:
[1] = test system: IL-2 production in primary T cells; assay: IL-2 ELISA on supernatants of activated primary T cells; assay type: cell-based, human; conditions: T cells activated with anti-CD3/anti-CD28 beads
Method: (§1) About 3×10^5 T cells were activated using anti-CD3/anti-CD28 magnetic beads as per manufacturer's protocol (Dynabeads®, Invitrogen, Carlsbad, Calif.). Briefly, a ratio of fresh primary T cells to beads used to activate the T cells was 1:1 (for every 80,000 T cells, 2 μl of beads were added). Test cells were treated simultaneously with various concentrations of MNK-specific inhibitor Compound 107 (0.01, 0.1, 1, 3 and 10 μM). After 48 hours, culture supernatants were harvested and examined via sandwich ELISA for the presence of IL-2 using human IL-2 ELISA DuoSet® (R&D Systems, Minneapolis, Minn.). […] After fixation, cells were washed twice with flow buffer and re-suspended in flow buffer and assessed for fluorescence using BD Accuri C6 cytometer. Data were analyzed using the C6 cytometer software (BD Biosciences, San Jose, Calif.).

[2] = test system: PD-1 expression on Jurkat cells; assay: PD-1 expression on PHA/PMA-activated Jurkat T cells (flow cytometry); assay type: cell-based, human
Method: (§2) To examine the effect of MNK-specific inhibitors on PD-1 expression, Jurkat cells (Clone E6.1, ATCC, transformed T cells) were used, which express PD-1 when activated through T cell receptor (TCR) signaling. Briefly, Jurkat cells were grown in 1×RPMI with 1× Pen/Strep, and 10% FBS, then about 3×10^6 Jurkat cells were activated in presence of 1 μg/mL PHA (Sigma) and 50 ng/mL PMA (Sigma). Test Cells were treated simultaneously with various concentrations of MNK-specific inhibitor Compound 107 (0, 0.01, 0.1, 1, 3 and 10 μM). After 48 hours, culture supernatants were harvested and examined via sandwich ELISA for the presence of IL-2 using human IL-2 ELISA DuoSet® (R&D Systems, Minneapolis, Minn.). The level of PD-1 on Jurkat cells was examined by incubating cells with fixable dead cell stain (1:20,000; BD Biosciences, San Jose, Calif.) for 15 minutes at 4° C., washed twice with flow staining buffer (1×PBS, 4% FBS and 1 mM EDTA), incubated with human FcR block, then contacted with allophycocyanin (APC) conjugated anti-PD-1 antibody (Biolegend, San Diego, Calif.) for 30 minutes at 4° C., washed two times with flow buffer, and finally cells were fixed with fixation buffer for 20 minutes at 4° C. After fixation, cells were washed twice with flow buffer and re-suspended in flow buffer and assessed for fluorescence using BD Accuri C6 flow cytometer. Data were analyzed using the C6 cytometer software (BD Biosciences, San Jose, Calif.).

[3] = test system: HLA class II protein HLA-DQA1; assay: HLA-DQA1 protein level in TMD8 cells (Western blot); assay type: cell-based, human
Method: The ability of MNK-specific inhibitor compounds to regulate the level of HLA class II proteins was evaluated in a diffuse large B-cell lymphoma (DLBCL) cell line, TMD8. Briefly, human DLBCL cell line TMD8 (ATCC), was cultured in RPMI media supplemented with penicillin G (100 U/ml), streptomycin (100 μg/ml), and 10% FBS in a humidified atmosphere of 5% CO2 maintained at 37° C. About 2-4×10^6 TMD8 cells were seeded in 10 cm plates 24 hours prior to drug treatment. The following day, cells were treated with either vehicle control (DMSO) or Compound 107 at the indicated concentration (FIG. 7). Cells were harvested 48 hours post-treatment.
Treated cells were harvested, washed with PBS and lysed in 1×RIPA buffer (Thermo Fisher) for 15 minutes at 4° C. Lysates were clarified by centrifugation for 15 min at 14,000×rpm and supernatants were collected. Protein concentration in the soluble fraction was determined using the BCA protein assay (Thermo Scientific). Proteins were resolved on 4-20% Bis-Tris gradient polyacrylamide gel (Invitrogen) and transferred to nitrocellulose membrane. […] The blots were washed, scanned, and specific proteins detected using the LI-COR Odyssey infrared imager. […]

primary T cells = assay: Primary T cell viability (fixable dead cell stain); assay type: cell-based; conditions: T cells activated with anti-CD3/anti-CD28 beads
Method: as §1

Jurkat cells = assay: Jurkat T cell viability (fixable dead cell stain); assay type: cell-based
Method: as §2

[4] = Jurkat T cell assay, MNK-specific inhibitors

SMILES: Cc1cc(Nc2cc(N)ncn2)c(=O)n2c1C(=O)NC21CCCCC1.Cl [Compound 107]
- IL-2 production [1]: did not detectably alter IL-2 production
- % PD-1 + Inhibition [2, 4]: +++ (+++ = 50-75%)
- PD-1 expression ([2]; Jurkat cells with PHA and PMA, 0.01, 0.1, 1, 3 and 10 μM): reduced in a dose dependent manner
- reduction in the expression of PD-1 as compared to control ([2]; PHA/PMA activated Jurkat T cells, highest concentration, 48 hours): ≤ 50%
- EC50 ([3]; Homo sapiens, TMD8, 48 h, read-out: EC50 of increase in HLA-DQA1 protein level): ~0.3 µM
- HLA-DQA1 protein level ([3]; TMD8 cells, 48 hours, 300 nM or 10 μM): dose dependent increase
- T cell viability (percentage of dead cells) (primary T cells): no effect on T cell viability; also recorded: unaffected
- Cell Death (Jurkat cells; [4]): − (− = 0-10%)
- cell viability (percentage of dead cells) (Jurkat cells; Jurkat cells with PHA and PMA): no effect on cell viability; also recorded: unaffected
